Reference: patent US20090068290A1, “BIFEPRUNOX DOSES FOR TREATING SCHIZOPHRENIA” (priority 2006, published 2009)

Assays:
[1] = system: adult subjects with schizophrenia; experiment: BPRS psychosis cluster score, Clinical Study One; type: in vivo, human; details: for Change from Baseline in BPRS Psychosis Cluster Score, Mean (S.D.) / Change from Baseline in BPRS Psychosis Cluster Score, Median / Change from Baseline in BPRS Psychosis Cluster Score, Trt Effect (bifeprunox—placebo) / Change from Baseline in BPRS Psychosis Cluster Score, Mean S.D.: ITT population
Procedure: There were five treatment groups in this study. […] Study medication was administered once daily. After Baseline measurements were performed, the titration phase was begun. Bifeprunox treated subjects were titrated up to 5 mg, 10 mg or 20 mg according to a standardized titration schedule (Day 1: 0.125 mg, Day 2: 0.25 mg, Day 3: 0.5 mg, Day 4: 1.0 mg, Day 5: 2.0 mg, Day 6: 5.0 mg, Day 7: 10.0 mg, Day 8: 20 mg). When the assigned dose was reached, subjects were maintained at that dose for the remainder of the six-week treatment period.

[2] = system: adult subjects with schizophrenia; experiment: Adverse events (TEAE, SAE, discontinuation, EPS-related TEAE, anticholinergic use), Clinical Study One; type: in vivo, human
Procedure: METHODOLOGY: This was a randomized, double-blind, fixed-dose, placebo-controlled, risperidone-referenced, parallel group, multi-center study in adult subjects with schizophrenia. There were five treatment groups in this study. […] Study medication was administered once daily. After Baseline measurements were performed, the titration phase was begun. Bifeprunox treated subjects were titrated up to 5 mg, 10 mg or 20 mg according to a standardized titration schedule (Day 1: 0.125 mg, Day 2: 0.25 mg, Day 3: 0.5 mg, Day 4: 1.0 mg, Day 5: 2.0 mg, Day 6: 5.0 mg, Day 7: 10.0 mg, Day 8: 20 mg).

[3] = Bifeprunox 10 mg, Endpoint LOCF
[4] = Bifeprunox 20 mg, Endpoint LOCF

**Q.** Which results are given for `O=c1[nH]c2cccc(N3CCN(Cc4cccc(-c5ccccc5)c4)CC3)c2o1` [Bifeprunox, 7-[4-([1,1′-biphenyl]-3-ylmethyl)-1-piperazinyl]-2(3H)-benzoxazolone]?
**A.** BPRS psychosis cluster score, treatment effect (bifeprunox—placebo) ([1]; Bifeprunox 5 mg, Endpoint LOCF): −0.9; Change from Baseline in BPRS Psychosis Cluster Score, Mean (S.D.) ([1]; Bifeprunox 5 mg, Endpoint LOCF): 2.5 (3.8); Change from Baseline in BPRS Psychosis Cluster Score, Median ([1]; Bifeprunox 5 mg, Endpoint LOCF): −3; Change from Baseline in BPRS Psychosis Cluster Score, Trt Effect (bifeprunox—placebo) ([1]; Bifeprunox 5 mg, Endpoint LOCF): −0.9; Change from Baseline in BPRS Psychosis Cluster Score, Mean (S.D.) ([1]; Bifeprunox 5 mg, Week 1, LOCF): −1.0 (2.6); Change from Baseline in BPRS Psychosis Cluster Score, Median ([1]; Bifeprunox 5 mg, Week 1, LOCF): −1; Change from Baseline in BPRS Psychosis Cluster Score, Mean S.D. ([1]; Bifeprunox 5 mg, Week 2, LOCF): −1.8 (3.3); Change from Baseline in BPRS Psychosis Cluster Score, Median ([1]; Bifeprunox 5 mg, Week 2, LOCF): −2; Change from Baseline in BPRS Psychosis Cluster Score, Mean (S.D.) ([1]; Bifeprunox 5 mg, Week 3, LOCF): −2.2 (3.6); Change from Baseline in BPRS Psychosis Cluster Score, Median ([1]; Bifeprunox 5 mg, Week 3, LOCF): −2; Change from Baseline in BPRS Psychosis Cluster Score, Mean (S.D.) ([1]; Bifeprunox 5 mg, Week 4, LOCF): −24 (3.8); Change from Baseline in BPRS Psychosis Cluster Score, Median ([1]; Bifeprunox 5 mg, Week 4, LOCF): −3; BPRS psychosis cluster score, treatment effect (bifeprunox—placebo) [1, 3]: 0.4; Change from Baseline in BPRS Psychosis Cluster Score, Mean (S.D.) [1, 3]: −1.2 (4.6); Change from Baseline in BPRS Psychosis Cluster Score, Median [1, 3]: 0; Change from Baseline in BPRS Psychosis Cluster Score, Trt Effect (bifeprunox—placebo) [1, 3]: 0.4; Change from Baseline in BPRS Psychosis Cluster Score, Mean (S.D.) ([1]; Bifeprunox 10 mg, Week 1, LOCF): −0.7 (3.0); Change from Baseline in BPRS Psychosis Cluster Score, Median ([1]; Bifeprunox 10 mg, Week 1, LOCF): −1; Change from Baseline in BPRS Psychosis Cluster Score, Mean S.D. ([1]; Bifeprunox 10 mg, Week 2, LOCF): −1.1 (3.7); Change from Baseline in BPRS Psychosis Cluster Score, Median ([1]; Bifeprunox 10 mg, Week 2, LOCF): −1; Change from Baseline in BPRS Psychosis Cluster Score, Mean (S.D.) ([1]; Bifeprunox 10 mg, Week 3, LOCF): −1.1 (4.2); Change from Baseline in BPRS Psychosis Cluster Score, Median ([1]; Bifeprunox 10 mg, Week 3, LOCF): −1; Change from Baseline in BPRS Psychosis Cluster Score, Mean (S.D.) ([1]; Bifeprunox 10 mg, Week 4, LOCF): −1.1 (4.3); Change from Baseline in BPRS Psychosis Cluster Score, Median ([1]; Bifeprunox 10 mg, Week 4, LOCF): −1; Change from Baseline in BPRS Psychosis Cluster Score, Mean (S.D.) [1, 4]: −2.7 (3.9); Change from Baseline in BPRS Psychosis Cluster Score, Median [1, 4]: −3; Change from Baseline in BPRS Psychosis Cluster Score, Trt Effect (bifeprunox—placebo) [1, 4]: −1.1; Change from Baseline in BPRS Psychosis Cluster Score, Mean (S.D.) ([1]; Bifeprunox 20 mg, Week 1, LOCF): −1.5 (2.6); Change from Baseline in BPRS Psychosis Cluster Score, Median ([1]; Bifeprunox 20 mg, Week 1, LOCF): −1; Change from Baseline in BPRS Psychosis Cluster Score, Median ([1]; Bifeprunox 20 mg, Week 2, LOCF): −2; Change from Baseline in BPRS Psychosis Cluster Score, Mean (S.D.) ([1]; Bifeprunox 20 mg, Week 3, LOCF): −2.7 (3.5); Change from Baseline in BPRS Psychosis Cluster Score, Median ([1]; Bifeprunox 20 mg, Week 3, LOCF): −3; Change from Baseline in BPRS Psychosis Cluster Score, Mean (S.D.) ([1]; Bifeprunox 20 mg, Week 4, LOCF): −2.8 (3.7); Change from Baseline in BPRS Psychosis Cluster Score, Median ([1]; Bifeprunox 20 mg, Week 4, LOCF): −3; BPRS psychosis cluster score, treatment effect (bifeprunox—placebo) ([1]; bifeprunox 20 mg, Endpoint LOCF): −1.1; TEAE Akathisia, % ([2]; 5 mg, Safety Population): (<1%); TEAE Benign Skin Neoplasm Nos, % ([2]; 5 mg, Safety Population): (<1%); TEAE Muscle Stiffness, % ([2]; 5 mg, Safety Population): (<1%); TEAE Muscle Tightness, % ([2]; 5 mg, Safety Population): (<1%); TEAE Muscle Twitching, % ([2]; 5 mg, Safety Population): (2%); TEAE NEOPLASMS BENIGN, MALIGNANT AND UNSPECIFIED (INCL CYSTS AND POLYPS), % ([2]; 5 mg, Safety Population): (2%); TEAE NERVOUS SYSTEM DISORDERS, % ([2]; 5 mg, Safety Population): (48%); TEAE Neck Pain, % ([2]; 5 mg, Safety Population): (<1%); TEAE Pain in Jaw, % ([2]; 5 mg, Safety Population): (<1%); TEAE Pain in Limb, % ([2]; 5 mg, Safety Population): (<1%); TEAE Skin Papilloma, % ([2]; 5 mg, Safety Population): (<1%); TEAE Akathisia, % ([2]; 10 mg, Safety Population): (2%); TEAE Muscle Stiffness, % ([2]; 10 mg, Safety Population): (<1%); TEAE Muscle Twitching, % ([2]; 10 mg, Safety Population): (<1%); TEAE Musculoskeletal Discomfort, % ([2]; 10 mg, Safety Population): (<1%); TEAE Myalgia, % ([2]; 10 mg, Safety Population): (<1%); TEAE NERVOUS SYSTEM DISORDERS, % ([2]; 10 mg, Safety Population): (50%); TEAE Neck Pain, % ([2]; 10 mg, Safety Population): (3%); TEAE Pain in Jaw, % ([2]; 10 mg, Safety Population): (<1%); TEAE Pain in Limb, % ([2]; 10 mg, Safety Population): (2%); TEAE Akathisia, % ([2]; 20 mg, Safety Population): (3%); TEAE Muscle Spasms, % ([2]; 20 mg, Safety Population): (2%); TEAE Muscle Twitching, % ([2]; 20 mg, Safety Population): (<1%); TEAE Myalgia, % ([2]; 20 mg, Safety Population): (<1%); TEAE NERVOUS SYSTEM DISORDERS, % ([2]; 20 mg, Safety Population): (43%); TEAE Neck Pain, % ([2]; 20 mg, Safety Population): (2%); TEAE Pain in Limb, % ([2]; 20 mg, Safety Population): (3%); TEAE Sensation of Heaviness, % ([2]; 20 mg, Safety Population): (<1%); Acute Psychosis, % ([2]; BX 5 mg): (<1%); Aggression, % ([2]; BX 5 mg): (<1%); Agitation Aggravated, % ([2]; BX 5 mg): (4%); Agitation, % ([2]; BX 5 mg): (11%); Anxiety Aggravated, % ([2]; BX 5 mg): (3%); Anxiety, % ([2]; BX 5 mg): (5%); Confusion, % ([2]; BX 5 mg): (<1%); DIZZINESS, % ([2]; BX 5 mg): (14%); DYSKINESIA, % ([2]; BX 5 mg): (<1%); EXTRAPYRAMIDAL DISORDER, % ([2]; BX 5 mg): (1%); Gait Abnormal Nos, % ([2]; BX 5 mg): (<1%); Headache Nos, % ([2]; BX 5 mg): (30%); PSYCHIATRIC DISORDERS, % ([2]; BX 5 mg): (41%); Parkinsonian Rest Tremor, % ([2]; BX 5 mg): (<1%); SEDATION, % ([2]; BX 5 mg): (5%); SOMNOLENCE, % ([2]; BX 5 mg): (3%); Syncope, % ([2]; BX 5 mg): (<1%); TREMOR, % ([2]; BX 5 mg): (3%); Trismus, % ([2]; BX 5 mg): (<1%); Agitation Aggravated, % ([2]; BX 10 mg): (4%); Agitation, % ([2]; BX 10 mg): (9%); Anxiety Aggravated, % ([2]; BX 10 mg): (3%); Anxiety, % ([2]; BX 10 mg): (10%); DIZZINESS, % ([2]; BX 10 mg): (10%); DYSKINESIA, % ([2]; BX 10 mg): (<1%); Gait Abnormal Nos, % ([2]; BX 10 mg): (2%); Headache Nos, % ([2]; BX 10 mg): (35%)
